According to US7951954B2, “Bezothiazol derivatives as Beta2 adrenoreceptor agonists” (AstraZeneca AB, priority 2006, dated 2011):
Where a name gives a salt, the structure may show the parent alone. Read-outs that look alike come from different tables or passages of the source.

How the values were obtained:
[1] = molecular target: T1, Adrenergic β2 (Homo sapiens, UniProt P07550); experiment: Adrenergic β2 mediated cAMP production in H292 cells (AlphaScreen cAMP detection); assay type: cell-based; conditions: for EC50: cAMP production in H292 cells, 300 μM rolipram, 10 minutes with compound, read-out: β2 pEC50 (converted)
T1 construct: endogenous in cells; host or cells: H292 cells
Description: Adrenergic β2 Mediated cAMP Production
H292 cells were grown in RPMI (Roswell Park Memorial Institute) medium containing, 10% (v/v) FBS (foetal bovine serum) and 2 mM L-glutamine. Cells were grown in 225 cm2 flasks containing 25 mL media in a humidified incubator at 37° C., 5% CO2. Cells were harvested from the flask and passaged at a 1 in 10 dilution once per week.
The media from flasks containing H292 cells was removed, rinsed with 10 mL PBS phosphate buffered saline) and replaced with 10 mL Accutase™ cell detachment solution. Flasks were incubated for 15 minutes in a humidified incubator at 37° C., 5% CO2. The cell suspension was counted and the cells re-suspended in RPMI media (containing 10% (v/v) FBS and 2 mM L-glutamine) at 0.05×10^6 cells per mL. 5000 cells in 100 μL were added to each well of a tissue-culture-treated 96-well plate and the cells incubated overnight in a humidified incubator at 37° C., 5% CO2. The culture media was removed, washed twice with 100 μL assay buffer and replaced with 50 μL assay buffer. Cells were rested at room temperature for 20 minutes after which time 25 μL of rolipram (1.2 mM made up in assay buffer containing 2.4% (v/v) dimethylsulphoxide) was added. Cells were incubated with rolipram for 10 minutes after which time test compounds (made up as ×4 concentrated stocks in assay buffer containing 4% (v/v) dimethylsulphoxide) were added and the cells were incubated for 10 minutes at room temperature. Final rolipram concentration in the assay was 300 μM and final vehicle concentration was 1.6% (v/v) dimethylsulphoxide. The reaction was stopped by removing supernatants, washing once with 100 μL assay buffer and replacing with 50 μL lysis buffer. The cell monolayer was frozen at −80° C. for 30 minutes (or overnight).
The concentration of cAMP (cyclic adenosine monophosphate) in the cell lysate was determined using the AlphaScreen™ methodology. The frozen cell plate was thawed for 20 minutes on a plate shaker then 10 μL of the cell lysate was transferred to a 96-well white plate. 40 μL of mixed AlphaScreen™ detection beads (containing equal volumes of donor beads (pre-incubated with biotinylated cAMP in the dark for 30 minutes) and acceptor beads), was added to each well and the plate incubated at room temperature for 10 hours in the dark. The AlphaScreen™ signal was measured using an EnVision spectrophotometer (Perkin-Elmer Inc.) with the recommended manufacturer's settings. cAMP concentrations were determined by reference to a calibration curve determined in the same experiment using standard cAMP concentrations (made up in lysis buffer in a 96-well tissue-culture-treated plate and frozen/thawed alongside the test samples) and detected using the same protocol. Concentration response curves for agonists were constructed to determine both the pEC50 and Intrinsic Activity.

[2] = molecular target: T2, recombinant human α1D receptor (Homo sapiens, UniProt P25100); experiment: Adrenergic α1D selectivity assay, [3H]-prazosin binding to HEK293 membranes; conditions: inhibition of [3H]-prazosin binding, HEK293 membranes with recombinant human α1D; read-out: α1D pEC50 (converted)
T2 construct: expressed in transfected cells; host or cells: HEK293
T2 sequence (P25100 1-572): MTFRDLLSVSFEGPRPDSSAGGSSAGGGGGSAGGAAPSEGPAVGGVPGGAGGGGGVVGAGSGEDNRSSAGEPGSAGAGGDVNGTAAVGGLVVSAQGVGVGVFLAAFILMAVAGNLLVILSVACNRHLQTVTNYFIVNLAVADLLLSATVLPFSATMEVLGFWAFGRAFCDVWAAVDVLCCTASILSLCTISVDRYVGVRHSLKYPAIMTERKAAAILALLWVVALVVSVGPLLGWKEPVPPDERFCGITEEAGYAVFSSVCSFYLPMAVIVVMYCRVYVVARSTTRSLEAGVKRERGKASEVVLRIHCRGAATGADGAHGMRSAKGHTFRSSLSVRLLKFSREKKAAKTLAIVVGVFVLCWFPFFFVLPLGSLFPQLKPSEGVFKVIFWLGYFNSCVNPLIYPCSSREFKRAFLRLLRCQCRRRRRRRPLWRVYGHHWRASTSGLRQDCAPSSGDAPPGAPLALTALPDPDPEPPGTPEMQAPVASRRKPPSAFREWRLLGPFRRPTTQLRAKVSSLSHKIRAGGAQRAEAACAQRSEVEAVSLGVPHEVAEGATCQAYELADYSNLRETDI
Description: (§1) These were diluted in Assay Buffer (50 mM HEPES, 1 mM EDTA, 0.1% gelatin, pH 7.4) to provide a final concentration of membranes that gave a clear window between maximum and minimum specific binding.
Assays were performed in U-bottomed 96-well polypropylene plates. […] For each assay plate 8 replicates were obtained for [^3H]-prazosin binding in the presence of 10 μL vehicle (10% (v/v) DMSO in Assay Buffer; defining maximum binding) or 10 μL BMY7378 (10 μM final concentration; defining non-specific binding (NSB)). Membranes were then added to achieve a final volume of 100 μL. The plates were incubated for 2 hours at room temperature and then filtered onto PEI coated GF/B filter plates, pre-soaked for 1 hour in Assay Buffer, using a 96-well plate Tomtec cell harvester. Five washes with 250 μL wash buffer (50 mM HEPES, 1 mM EDTA, pH 7.4) were performed at 4° C. to remove unbound radioactivity. The plates were dried then sealed from underneath using Packard plate sealers and MicroScint-O (50 μL) was added to each well. The plates were sealed (TopSeal A) and filter-bound radioactivity was measured with a scintillation counter (TopCount, Packard BioScience) using a 3-minute counting protocol.
(§2) Total specific binding (B0) was determined by subtracting the mean NSB from the mean maximum binding. NSB values were also subtracted from values from all other wells.

[3] = molecular target: T3, recombinant human adrenergic beta 1 receptors (Homo sapiens, UniProt P08588); experiment: Adrenergic β1 selectivity assay, [125I]-Iodocyanopindolol binding to membranes; conditions: inhibition of [125I]-Iodocyanopindolol binding, read-out: β1 pEC50 (converted)
T3 construct: purchased Euroscreen
Description: as §1, with “Membranes containing recombinant human adrenergic beta 1 receptors were obtained from Euroscreen. These” for “These”, “EDTA, 120 mM NaCl,” for “EDTA,”
Assays were performed in U-bottomed 96-well polypropylene plates. 10 μL [^125I]-Iodocyanopindolol (0.036 nM final concentration) and 10 μL of test compound (10× final concentration) were added to each test well. For each assay plate 8 replicates were obtained for [^125I]-Iodocyanopindolol binding in the presence of 10 μL vehicle (10% (v/v) DMSO in Assay Buffer; defining maximum binding) or 10 μL Propranolol (10 μM final concentration; defining non-specific binding (NSB)). Membranes were then added to achieve a final volume of 100 μL. The plates were incubated for 2 hours at room temperature and then filtered onto PEI coated GF/B filter plates, pre-soaked for 1 hour in Assay Buffer, using a 96-well plate Tomtec cell harvester. Five washes with 250 μL wash buffer (50 mM HEPES, 1 mM EDTA, 120 mM NaCl, pH 7.4) were performed at 4° C. to remove unbound radioactivity. The plates were dried then sealed from underneath using Packard plate sealers and MicroScint-O (50 μL) was added to each well. The plates were sealed (TopSeal A) and filter-bound radioactivity was measured with a scintillation counter (TopCount, Packard BioScience) using a 3-minute counting protocol.
as §2

[4] = fraction relative to the maximum activity determined for formoterol in each experiment, H292 cells, cAMP

T3 sequence (P08588 whole entry): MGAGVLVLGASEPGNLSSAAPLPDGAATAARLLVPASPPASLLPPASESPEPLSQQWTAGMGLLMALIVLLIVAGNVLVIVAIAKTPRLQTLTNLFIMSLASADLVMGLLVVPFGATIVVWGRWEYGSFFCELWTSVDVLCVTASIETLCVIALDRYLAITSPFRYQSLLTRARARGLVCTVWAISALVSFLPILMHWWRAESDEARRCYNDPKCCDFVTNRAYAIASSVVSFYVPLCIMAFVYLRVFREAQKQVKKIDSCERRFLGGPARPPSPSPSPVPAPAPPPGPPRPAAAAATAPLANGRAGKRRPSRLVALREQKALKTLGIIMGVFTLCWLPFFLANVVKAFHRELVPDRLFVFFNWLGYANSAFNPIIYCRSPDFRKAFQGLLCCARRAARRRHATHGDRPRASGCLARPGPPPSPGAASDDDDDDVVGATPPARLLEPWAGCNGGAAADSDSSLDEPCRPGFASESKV
T1 sequence (P07550 whole entry): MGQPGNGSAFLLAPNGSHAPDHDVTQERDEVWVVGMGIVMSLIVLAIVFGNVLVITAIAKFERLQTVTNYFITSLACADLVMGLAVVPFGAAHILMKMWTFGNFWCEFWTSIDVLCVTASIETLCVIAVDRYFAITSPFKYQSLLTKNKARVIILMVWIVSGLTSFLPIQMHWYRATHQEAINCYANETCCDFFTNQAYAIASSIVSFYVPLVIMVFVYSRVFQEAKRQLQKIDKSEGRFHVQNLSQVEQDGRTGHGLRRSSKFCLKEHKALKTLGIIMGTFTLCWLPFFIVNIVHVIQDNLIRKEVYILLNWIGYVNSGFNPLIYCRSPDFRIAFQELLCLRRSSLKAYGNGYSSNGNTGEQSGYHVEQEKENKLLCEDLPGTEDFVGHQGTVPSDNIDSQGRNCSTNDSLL

`O=c1[nH]c2c(O)ccc([C@@H](O)CNCCc3cccc(CN4CCOCC4)c3)c2s1` [Example 72, 4-Hydroxy-7-{1R-hydroxy-2-[2-(3-morpholin-4-ylmethyl-phenyl)-ethylamino]-ethyl}-3H-benzothiazol-2-one bis-hydrochloride salt] was tested, and the EC50 [1] was 1 nM, the “Intrinsic Activity” value [1, 4] was 0.9 and the EC50 [2] was 398 nM. It also gave an EC50 [3] of 100 nM.

`O=c1[nH]c2c(O)ccc([C@@H](O)CNCCc3cccc(CNCc4ccccc4Cl)c3)c2s1` [Example 3, 7-[2-(2-{3-[(2-Chloro-benzylamino)-methyl]-phenyl}-ethylamino)-1R-hydroxy-ethyl]-4-hydroxy-3H-benzothiazol-2-one bis-trifluoroacetate salt] was tested, and the “Intrinsic Activity” value [1] was 0.9, the EC50 [2] was 158 nM and the EC50 [3] was 10 nM.

In the case of `O=c1[nH]c2c(O)ccc([C@@H](O)CNCCc3ccc(CNCCc4ccccn4)cc3)c2s1` [Example 22, 4-Hydroxy-7-[1R-hydroxy-2-(2-{4-[(2-(2-pyridyl)ethylamino)methyl]phenyl}-ethylamino)ethyl]-3H-benzothiazol-2-one tris-trifluoroacetate salt], the “Intrinsic Activity” value [1] is reported as 1.0, the EC50 [2] is reported as 25.1 nM and the EC50 [3] is reported as 794 nM.

With `COCCNCc1cccc(CCNC[C@H](O)c2ccc(O)c3[nH]c(=O)sc23)c1` [Example 13, 4-Hydroxy-7-[1R-hydroxy-2-(2-{3-[(2-methoxy-ethylamino)-methyl]-phenyl}-ethylamino)-ethyl]-3H-benzothiazol-2-one di-hydrochloride salt] the “Intrinsic Activity” value [1] was 1.0, the EC50 [1] was 2 nM and the EC50 [2] was 501 nM. It also gave an EC50 [3] of 158 nM.

With `O=c1[nH]c2c(O)ccc([C@@H](O)CNCCc3cccc(CN[C@@H]4C[C@H]4c4ccc(F)cc4)c3)c2s1` [Example 10, 7-{2-[2-(3-{[2S-(4-Fluoro-phenyl)-cycloprop-1R-ylamino]-methyl}-phenyl)-ethylamino]-1R-hydroxy-ethyl}-4-hydroxy-3H-benzothiazol-2-one bis-trifluoroacetate salt] the EC50 [1] was 0.316 nM, the “Intrinsic Activity” value [1, 4] was 1.0 and the EC50 [2] was 316 nM. For the same compound, the EC50 [3] was 200 nM.

For `O=c1[nH]c2c(O)ccc([C@@H](O)CNCCc3cccc(CNCCc4cccc[n+]4[O-])c3)c2s1` [Example 40, 4-Hydroxy-7-{1R-hydroxy-2-[2-(3-{[2-(1-oxy-pyridin-2-yl)-ethylamino]-methyl}-phenyl)-ethylamino]-ethyl}-3H-benzothiazol-2-one bis-trifluoroacetate salt], the EC50 [1] was 2.51 nM, the “Intrinsic Activity” value [1, 4] was 0.8 and the EC50 [2] was 100 nM. For the same compound, the EC50 [3] was 39.8 nM.

`CC(C)OCCCNCc1cccc(CCNC[C@H](O)c2ccc(O)c3[nH]c(=O)sc23)c1` [Example 64, 4-Hydroxy-7-[1R-hydroxy-2-(2-{3-[(3-isopropoxy-propylamino)-methyl]-phenyl}-ethylamino)-ethyl]-3H-benzothiazol-2-one bis-hydrochloride salt] was tested, and the EC50 [1] was 0.794 nM, the “Intrinsic Activity” value [1, 4] was 0.8 and the EC50 [2] was 398 nM. It also gave an EC50 [3] of 501 nM.

`CC(C)NCc1ccc(CCNC[C@H](O)c2ccc(O)c3[nH]c(=O)sc23)cc1` [Example 53, 4-Hydroxy-7-{1R-hydroxy-2-[2-(4-isopropylaminomethyl)phenyl]ethylamino}-ethyl)-3H-benzothiazol-2-one bis-trifluoroacetate salt] was tested, and the EC50 [1] was 0.631 nM, the “Intrinsic Activity” value [1, 4] was 0.9 and the EC50 [2] was 398 nM. It also gave an EC50 [3] of 251 nM.

For `CC(Cc1cccc(CNCCc2c(Cl)cccc2Cl)c1)NC[C@H](O)c1ccc(O)c2[nH]c(=O)sc12` (stereo partly drawn) [Example 15, 7-{2-[2-(3-{[2-(2,6-Dichloro-phenyl)-ethylamino]-methyl}-phenyl)-1-methyl-ethylamino]-1R-hydroxy-ethyl}-4-hydroxy-3H-benzothiazol-2-one bis-trifluoroacetate salt], the “Intrinsic Activity” value [1] was 0.8, the EC50 [2] was 39.8 nM and the EC50 [3] was 15.8 nM.

With `COc1ccccc1CNCCc1cccc(CCNC[C@H](O)c2ccc(O)c3[nH]c(=O)sc23)c1` [Example 45, 4-Hydroxy-7-[1R-hydroxy-2-(2-{3-[2-(2-methoxy-benzylamino)-ethyl]-phenyl}-ethylamino)-ethyl]-3H-benzothiazol-2-one bis-hydrochloride salt] the “Intrinsic Activity” value [1] was 1.0, the EC50 [2] was 25.1 nM and the EC50 [3] was 63.1 nM.

With `O=c1[nH]c2c(O)ccc([C@@H](O)CNCCc3cccc(CN4CCCCCC4)c3)c2s1` [Example 71, 7-{2-[2-(3-Azepan-1-ylmethyl-phenyl)-ethylamino]-1R-hydroxy-ethyl}-4-hydroxy-3H-benzothiazol-2-one bis-hydrochloride salt-] the EC50 [1] was 0.794 nM, the “Intrinsic Activity” value [1, 4] was 0.9 and the EC50 [2] was 31.6 nM. It also gave an EC50 [3] of 398 nM.

In the case of `O=c1[nH]c2c(O)ccc([C@@H](O)CNCCc3cccc(CNCCc4c(Cl)cccc4Cl)c3)c2s1` [Example 1, 7-{2-[2-(3-{[2-(2,6-Dichloro-phenyl)-ethylamino]-methyl}-phenyl)-ethylamino]-1R-hydroxy-ethyl}-4-hydroxy-3H-benzothiazol-2-one bis-trifluoroacetate salt], the “Intrinsic Activity” value [1, 4] is reported as 0.8, the EC50 [2] is reported as 63.1 nM and the EC50 [3] is reported as 12.6 nM.
